Read-outs that look alike come from different tables or passages of the source.
Tests used:
[1] = test system: KLF5; assay: Western blot of KLF5 protein levels in DLD-1 cells; type: cell-based, human; conditions: 1 μM and 10 μM, 24 h
Procedure: In this experiment the test compounds were at 1 μM and 10 μM, and protein levels were measured after 24 h.
(§1) Western blot analysis. Total protein was extracted from cells with Laemmli buffer and the analysis was performed as described previously (24).

[2] = test system: MAPK pathway; assay: Western blot of MAPK signaling pathway components; type: cell-based, human; conditions: DLD-1 and HCT116, 10 μM, 72 h
Excerpt: SR18662 negatively regulates MAPK and WNT signaling pathway and cyclin levels. Myriad publications have shown that in both in vitro and in vivo contexts KLF5 is regulated by MAPK and WNT signaling pathways and that KLF5, in turn, has the ability to modulate the activity of these pathways (14, 18, 26-32). We have previously shown that treatment of CRCs with ML264 results in decreased activity of both the MAPK and WNT signaling pathways (24). Because SR15006 and SRI8662 are structurally related to ML264, we decided to investigate their ability to alter the expression levels of the components of these pathways. Thus, we treated DLD-1 and HCT116 CRCs with DMSO (vehicle) and tested compounds at 1 μM or 10 μM, collecting the cells for western blot analysis at 24, 48, and 72 h. […] Similar effects were seen when both cell lines were treated these compounds at 1 μM. Furthermore, the inhibitory effects of SR18662 on the components of the MAPK signaling pathway we observed at earlier time points than were apparent following treatment with ML264 or SR15006.
as §1

[3] = test system: Cyclin D1, E, A2, and B1; assay: Western blot of cyclin levels; type: cell-based, human; conditions: DLD-1 and HCT116, 1 μM or 10 μM, 72 h
Excerpt: Cyclins and their appropriate cyclin-dependent kinases form a regulatory network that allow cells to progress through the cell cycle (39, 40). […] SR15006, or SR18662, as compared to vehicle-treated cells. Thus, we investigated if these changes are accompanied by differences in the expression levels of cyclins. We focused our attention on Cyclin D1, E, A2, and B1, as we have previously shown that ML264 has inhibitory effect on their levels (24). […] Additionally, in contrast to ML264 or SR15006, SR18862 induced apoptosis and cell death.
as §1

[4] = test system: SW-620 colorectal cancer cell line; assay: MTT growth assay, SW-620; type: cell-based; conditions: Homo sapiens, Table 1
Excerpt: (§2) The observed activity is greater than that previously seen for ML264.

[5] = test system: human KLF5 promoter; assay: KLF5 promoter activity luciferase assay in DLD-1/pGL4.18hKLF5p cells; type: cell-based; conditions: Homo sapiens, DLD-1
Procedure: To examine the impact of these compounds on viability of CRC cell lines, we performed cell proliferation and cell growth assays using DLD-1 and HCT116 CRC cells. […] KLF5 promoter activity assay. DLD-1/pGL4.18hKLF5p cells were seeded in 96 well plate format and treated with DMSO or with test compounds dissolved in DMSO in the range of 0.001 to 20 μM final concentration for 24 h and the human KLF5 promoter activity was determined with the ONE-Glo luciferase assay system (Promega) using a SpectramMax M3 (Molecular Devices) plate reader. The IC50 values were calculated using GraphPad Prism version 5.00 for Windows (GraphPad Software) (22).

[6] = test system: DLD-1, HCT-116, HT-29, and SW-620 colorectal cancer cell lines; assay: MTT assays for blocking growth of colorectal cancer cell lines (range over four lines); type: cell-based; conditions: Homo sapiens; DLD-1, HCT-116, HT-29, SW-620
Excerpt: as §2

[7] = test system: DLD-1 and HCT116 CRC cells; assay: Cell cycle analysis by flow cytometry (propidium iodide); type: cell-based, human; conditions: 10 μM, over three days, vs vehicle, ML264, SR15006
Procedure: SR18662 alters the cell cycle pattern of CRCs. […] We have also evaluated the impact of SR15006 and SR18662 on cell cycle progression. We treated DLD-1 and HCT116 CRC cells over the course of three days with vehicle or 1 μM or 10 μM of test compound and then analyzed cell cycle using flow cytometry.
Cell proliferation, cell cycle and apoptosis assays. For cell proliferation experiments, cell cycle, and apoptosis determination, DLD-1 and HCT116 cells were treated with 1 or 10 μM of each compound or with vehicle (DMSO). The cells were collected at 24, 48, and 72 h post-treatment and analyzed as previously described (24). Each experiment was performed in triplicate.

[8] = test system: HCT-116 colorectal cancer cell line; assay: MTT growth assay, HCT-116; type: cell-based; conditions: Homo sapiens, Table 1
Excerpt: as §2

[9] = test system: HT-29 colorectal cancer cell line; assay: MTT growth assay, HT-29; type: cell-based; conditions: Homo sapiens, Table 1
Excerpt: as §2

[10] = test system: EGR-1; assay: Western blot of EGR-1 protein levels in DLD-1 cells; type: cell-based, human; conditions: 1 μM and 10 μM, 24 h
Procedure: We have studied the effects of SR18662 upon lowering KLF5 levels in colon cancer cell lines. […] The levels of the protein EGR-1 are lowered as well. In this experiment the test compounds were at 1 μM and 10 μM, and protein levels were measured after 24 h. […] The study was also repeated using HCT-116 cells rather than DLD-1 cells, with similar results. These compounds appear to dose-dependently reduce levels of KLF5 and EGR-1 proteins.
as §1

[11] = test system: DLD-1, HCT116, HT29, and SW620 cells; assay: Cell viability (Cell Titer-Glo) of four CRC cell lines; type: cell-based, human; conditions: 24 h, FIGS. 2A-C
Procedure: SR18662 is potent inhibitor of CRC cell growth in vitro. […]. To examine the impact of these compounds on viability of CRC cell lines, we performed cell proliferation and cell growth assays using DLD-1 and HCT116 CRC cells. […] […]. Cell viability. DLD-1, HCT116, HT29, and SW620 cells were seeded in 96 well plate format and treated with DMSO or with compounds dissolved in DMSO in the range of 0.001 to 20 μM final concertation for 24 h and analyzed with the Cell Titer-Glo luciferase assay system (Promega) using a SpectraMax M3 (Molecular Devices) plate reader. The IC50 values were calculated using GraphPad Prism version 5.00 for Windows (GraphPad Software).

[12] = test system: major human CYP450 liver enzymes; assay: Inhibition of human CYP450 liver enzymes; type: in vitro ADME

EC50 [4]: 22 nM
IC50 ([5]; 24 h treatment, FIG. 1B, read-out: IC50, human KLF5 promoter activity): 4.4 nM
IC50 ([5]; Table 1, comparison of ML264 and SR18662, read-out: luciferase IC50): 4.4 nM
EC50 ([5]; Table 2, read-out: Approximate potency (EC50 · mol/L) (luciferase)): 4.4 nM
EC50 [6]: 1.74 nM
EC50 [8]: 22 nM
EC50 [9]: 40 nM
inhibition of major human CYP450 liver enzymes [12]: does not inhibit
SMILES: CS(=O)(=O)N1CCN(C(=O)CNC(=O)/C=C/c2ccc(Cl)c(Cl)c2)CC1 [Example 9, (E)-3-(3,4-dichlorophenyl)-N-(2-(4-(methylsulfonyl)piperazin-1-yl)-2-oxoethyl)acrylamide]
KLF5 protein levels by Western blot [1]: significantly reduced
expression levels of MAPK pathway components [2]: negatively regulated the expression levels of the components of the MAPK pathway
levels of cyclins [3]: significant reduction in the levels of tested cyclins
subG1 population [7]: significant increase in the number of cells within the subG1 population
EGR-1 protein levels by Western blot [10]: lowered
cell viability IC50 relative to ML264 and SR15006 [11]: about one log unit lower than those for ML264 and SR15006
